The values that follow come from PubChem BioAssay (NCI).

Test systems include HCT-116 colon; A498 renal; NCI/ADR-RES ovarian; BT-549 breast; K-562 leukemia; SK-OV-3 ovarian; A549 NSCLC; SF-295 CNS; NCI-H460 lung; EKVX NSCLC.
Common to all, as to assay: NCI-60 cell line screen, 48 h

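Where inhibition never reached the appropriate level, the endpoint shown equals the highest concentration tested. Otherwise, values were interpolated linearly from a five-concentration, 48-hour dose response in 96-well plates. GI50 marks 50% less growth. The concentration for full growth arrest is given as TGI.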 Where only a bound is given, the exact number is not on record here.

For the compound `CN(C)c1ccc(C(=O)c2ccc(N(C)C)c(N)c2)cc1N`, the GI50 with HCT-116 colon is 2.4 µM; with A498 renal it was 1.03 µM; with NCI/ADR-RES ovarian, 1.13 µM; in the assay with BT-549 breast, 8.02 µM; with K-562 leukemia, 0.867 µM; with SK-OV-3 ovarian, 5.57 µM. In addition, the GI50 in the assay with A549 NSCLC was 8.4 µM; in the assay with SF-295 CNS, 2.03 µM; in the assay with NCI-H460 lung it was 2.62 µM; in the assay with EKVX NSCLC, 8.87 µM. For the same compound, the TGI is 31.3 µM in the assay with HCT-116 colon; 18.1 µM with A498 renal; 12.3 µM with NCI/ADR-RES ovarian; more than 88.2 µM with BT-549 breast; more than 86.5 µM with K-562 leukemia; more than 45 µM with SK-OV-3 ovarian. The TGI was more than 100 µM in the assay on A549 NSCLC, 33.4 µM in the assay with SF-295 CNS, 34.5 µM in the assay with NCI-H460 lung and more than 100 µM in the assay with EKVX NSCLC.

On to `CN(C)C(=S)NN=C(c1ccccn1)c1ccccn1`, for which the GI50 in the assay with HCT-116 colon is less than 0.01 µM; in the assay on A498 renal, 0.191 µM; with NCI/ADR-RES ovarian, less than 0.0208 µM; with BT-549 breast, 0.074 µM; with SK-OV-3 ovarian, 0.0487 µM; in the assay on A549 NSCLC it was 0.101 µM. Further, the GI50 is 0.0421 µM with SF-295 CNS, less than 0.025 µM in the assay with NCI-H460 lung and 0.0247 µM in the assay on EKVX NSCLC. The TGI was 11 µM in the assay on HCT-116 colon; 12.1 µM in the assay with A498 renal; 4.98 µM in the assay on NCI/ADR-RES ovarian; 15.4 µM with BT-549 breast; more than 100 µM with K-562 leukemia; 16.7 µM with SK-OV-3 ovarian. The TGI in the assay on A549 NSCLC was more than 42.8 µM; with SF-295 CNS, 18.6 µM; in the assay on EKVX NSCLC, 23.8 µM.

Turning to `C[C@]12CC/C(=N\N)C[C@@H]1CC[C@@H]1[C@@H]2CC[C@]2(C)/C(=N/N)CC[C@@H]12`, the GI50 with HCT-116 colon, in the assay with A498 renal, in the assay with NCI/ADR-RES ovarian, in the assay with BT-549 breast, in the assay on K-562 leukemia and in the assay with SK-OV-3 ovarian was more than 100 µM in each case. For the same compound, the GI50 with A549 NSCLC, in the assay with SF-295 CNS, in the assay with NCI-H460 lung and with EKVX NSCLC was more than 100 µM each time. For the same compound, the TGI with HCT-116 colon, with A498 renal, in the assay on NCI/ADR-RES ovarian, in the assay on BT-549 breast, in the assay with K-562 leukemia and in the assay on SK-OV-3 ovarian was more than 100 µM in each case. Moreover, the TGI in the assay on A549 NSCLC, in the assay on SF-295 CNS, in the assay with NCI-H460 lung and in the assay with EKVX NSCLC was more than 100 µM throughout.

Consider `CC/C=C\C/C=C\C[C@H](O)C/C=C1/C(=O)C=C[C@H]1C/C=C\CCC(=O)OC`, for which the GI50 with HCT-116 colon was 1.55 µM; with A498 renal, more than 8.25 µM; with NCI/ADR-RES ovarian it was 3.74 µM; with BT-549 breast it was 2.78 µM; in the assay with K-562 leukemia, 2.26 µM; in the assay with SK-OV-3 ovarian it was more than 8.25 µM. Moreover, the GI50 in the assay on A549 NSCLC, with SF-295 CNS, in the assay with NCI-H460 lung and with EKVX NSCLC was more than 8.25 µM throughout. In addition, the TGI with HCT-116 colon was 3.15 µM; in the assay with A498 renal it was more than 8.25 µM; in the assay with NCI/ADR-RES ovarian it was more than 8.25 µM; in the assay on BT-549 breast it was more than 8.25 µM; in the assay on K-562 leukemia, more than 8.25 µM; in the assay on SK-OV-3 ovarian, more than 8.25 µM. The TGI with A549 NSCLC, in the assay with SF-295 CNS, in the assay on NCI-H460 lung and in the assay on EKVX NSCLC was more than 8.25 µM throughout.

Turning to `CN(C)/C=C/c1nnnn1-c1ccc(Cl)cc1`, the GI50 in the assay with HCT-116 colon was 4.4 µM; in the assay on A498 renal, 30.5 µM; in the assay on NCI/ADR-RES ovarian, 10.2 µM; in the assay with BT-549 breast, 8.56 µM; in the assay on K-562 leukemia, 19.6 µM; with SK-OV-3 ovarian, 24.1 µM. Moreover, the GI50 in the assay on A549 NSCLC was 30.5 µM; in the assay on SF-295 CNS, 19 µM; with NCI-H460 lung, 16.9 µM; in the assay on EKVX NSCLC, 30.9 µM. For the same compound, the TGI is 37.3 µM with HCT-116 colon; 87.1 µM with A498 renal; 36.3 µM with NCI/ADR-RES ovarian; 38.7 µM with BT-549 breast; more than 100 µM with K-562 leukemia; 81.6 µM in the assay with SK-OV-3 ovarian. Besides, the TGI is more than 100 µM in the assay on A549 NSCLC, 36.7 µM in the assay on SF-295 CNS, 37.3 µM in the assay with NCI-H460 lung and 82.8 µM in the assay on EKVX NSCLC.

As to `Nc1nc2c(c3ncccc13)C(c1ccc(Cl)c(Cl)c1)Cc1ncccc1-2` (stereo not drawn), the GI50 in the assay with HCT-116 colon is 3.71 µM; with A498 renal, 1.93 µM; with NCI/ADR-RES ovarian, 3.31 µM; in the assay on BT-549 breast, 3.73 µM; in the assay with K-562 leukemia, 2.67 µM; in the assay with SK-OV-3 ovarian, 3.49 µM. Also, the GI50 is 4.24 µM with A549 NSCLC, 2.82 µM in the assay with SF-295 CNS, 3.47 µM in the assay on NCI-H460 lung and 4.86 µM in the assay with EKVX NSCLC. The TGI with HCT-116 colon was found to be 14.1 µM; in the assay with A498 renal, 5.85 µM; in the assay with NCI/ADR-RES ovarian, 16.1 µM; in the assay on BT-549 breast, 16.7 µM; with K-562 leukemia it was 17.3 µM; in the assay on SK-OV-3 ovarian, 12.6 µM. In addition, the TGI is 15.3 µM in the assay on A549 NSCLC, 7.94 µM with SF-295 CNS, 13 µM in the assay on NCI-H460 lung and 18.4 µM in the assay on EKVX NSCLC.

`CCN(CC)c1ccc(N=C2C=C(C(=O)Nc3ccc(S(C)(=O)=O)cc3)C(=O)c3ccccc32)c(C)c1`: the GI50 in the assay with HCT-116 colon was 12.6 µM; with A498 renal, more than 100 µM; in the assay on NCI/ADR-RES ovarian, 94 µM; in the assay with BT-549 breast, 0.831 µM; in the assay on K-562 leukemia, 15.8 µM; in the assay with SK-OV-3 ovarian, 9.45 µM. In addition, the GI50 in the assay on A549 NSCLC was 49.6 µM; with SF-295 CNS, 3.32 µM; with NCI-H460 lung, 35 µM; in the assay on EKVX NSCLC, 5.52 µM. For the same compound, the TGI in the assay on HCT-116 colon, with A498 renal, in the assay on NCI/ADR-RES ovarian, with BT-549 breast, with K-562 leukemia and with SK-OV-3 ovarian was more than 100 µM each time. For the same compound, the TGI in the assay with A549 NSCLC was more than 100 µM; in the assay on SF-295 CNS it was 39.5 µM; in the assay with NCI-H460 lung, more than 100 µM; in the assay on EKVX NSCLC, more than 100 µM.

On to `C=C(C)C(=O)OC1CC2(C)OC2CC(OC(C)=O)/C(C)=C/C2OC(=O)C(=C)C21` (stereo not drawn), for which the TGI is 3.61 µM in the assay on HCT-116 colon; 26.4 µM with A498 renal; 18.2 µM in the assay with NCI/ADR-RES ovarian; 5.41 µM in the assay with BT-549 breast; 4.62 µM in the assay on K-562 leukemia; more than 91.3 µM with SK-OV-3 ovarian. Also, the TGI was 42.5 µM with A549 NSCLC, 30.3 µM in the assay with SF-295 CNS, 9.29 µM in the assay with NCI-H460 lung and 18.2 µM in the assay on EKVX NSCLC.
